Experimental data reported in patent US10808008B2, “Aromatic-cationic peptides and uses of same” (Cornell University, priority 2012, dated 2020).
“Also recorded” adds a separate entry of the source.

What was measured:
[1] = Fluorescence spectroscopy of labelled peptides with cardiolipin; assay type: binding
Description: The peptides 2′,6′-Dmt-D-Arg-[…] (SS-19) and 2′,6′-Dmt-D-Arg-Phe-Lys-Ald-NH2 (SS-37) cationic peptides carry net positive charge at neutral pH. They are expected to associate with anionic phospholipid cardiolipin based on electrostatic interaction. The interaction of small peptides with lipid membranes can been studied using fluorescence spectroscopy (Surewicz and Epand, 1984). […] Polarity-sensitive fluorescent probes were incorporated into the peptides and fluorescence spectroscopy was used to determine if SS-19, SS-37 and SS-36 interact with CL.
The peptide 2′,6′-Dmt-D-Arg-Phe-(atn)Dap-NH2 (SS-19) contains anthraniloyl incorporated into diaminopropionic acid. Anthraniloyl derivatives fluoresce in the 410-420 nm range when excited at 320-330 nm (Hiratsuka T, 1983). The quantum yield of anthraniloyl derivatives is strongly dependent on the local environment, and can increase 5-fold going from water to 80% ethanol, together with a blue shift in the emission maxima (λ max) of <10 nm (Hiratsuka T, 1983). Fluorescence emission spectrum of SS-19 (1 μM) alone, and in the presence of increasing concentrations of CL (5 to 50 μg/ml), was monitored following excitation at 320 nm using Hitachi F-4500 fluorescence spectrophotometer.
The peptide 2′,6′-Dmt-D-Arg-Phe-Lys-Ald-NH2 (SS-37) contains an additional amino acid, aladan (Ald), which has been reported to be particularly sensitive to the polarity of its environment and it has been used to probe the electrostatic character of proteins (Cohen et al., 2002). When excited at 350 nm, λmax shifts from 542 nm in water to 409 nm in heptane, accompanied by a significant increase in quantal yield (Cohen et al., 2001). Fluorescence emission spectrum of SS-37 (1 μM) alone, and in the presence of increasing concentrations of CL, was monitored following excitation at 350 nm. Addition of CL (5 to 50 μg/ml) led to a 3-fold increase in quantal yield of SS-37 as well as a clear blue shift in λ max, from 525 nm without CL to 500 nm with 50 μg/ml CL (FIG. 11B).
The peptide 2′,6′-Dmt-D-Arg-Ald-Lys-NH2 (SS-36) contains Ald in place Phe^3 in SS-02. Fluorescence emission spectrum of SS-36 (1 μM) alone, and in the presence of increasing concentrations of CL, was monitored following excitation at 350 nm. SS-36 was the most sensitive to the addition of CL, with dramatic increase in quantal yield and blue shift observed with much lower added amounts of CL (1.25 to 5 μg/ml). The λmax shifted from 525 nm without CL to 500 nm with as little as 1.25 μg/ml CL, and quantal yield increased by more than 100-fold with the addition of 5 μg/ml of CL (FIG. 11C). […] Accordingly, aromatic-cationic peptides of the present disclosure are useful for the prevention or treatment of diseases or disorders characterized by dysregulation of cardiolipin.
Changes in the emission intensity of the [atn]SS-02 and the [ald]SS-02 were measured using a Hitachi F-4500 fluorescence spectrophotometer. The different solvents used to dissolve the various phospholipids (chloroform, methanol and ethanol) had negligible effect on the fluorescence spectrum of [atn]SS-02 and [ald]SS-02. All experiments were done in low ionic solution (deionized water) to optimize electrostatic interactions of peptides with phospholipids.
Increasing concentrations of cardiolipin (5, 10, 25, and 50 μg/mL) were added to 1 μM [atn]SS-02, and the emission intensity between 350 nm and 500 nm was measured.

[2] = target: T1, cytochrome c and cardiolipin (CL) (Equus caballus, UniProt P00004); test: Fluorescence quenching by cytochrome c in the presence of cardiolipin; assay type: binding, horse
T1 construct: from tissue; host or cells: horse heart
T1 sequence (P00004 2-105 limits assumed): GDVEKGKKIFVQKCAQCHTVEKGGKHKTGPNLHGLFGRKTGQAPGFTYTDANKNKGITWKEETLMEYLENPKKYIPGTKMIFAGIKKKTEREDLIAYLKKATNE
Experimental: Fluorescence emission of SS-19 (10 μM) was monitored in real time (Ex/Em=320 nm/420 nm) using Hitachi F-4500 fluorescence spectrophotometer. […] CL may potentiate the interaction between SS-19 and cytochrome c by serving as an anionic platform for the two cationic molecules.
The quenching by cytochrome c was not displaced by sequential additions of bovine serum albumin (500 μg/ml) (FIG. 13C, A+arrows).
SS-36 also contains the polarity-sensitive fluorescent amino acid aladan. […] Accordingly, aromatic-cationic peptides of the present disclosure are useful for the prevention or treatment of diseases or disorders characterized by dysregulation of cardiolipin and/or cytochrome c, and/or diseases or disorders characterized by dysregulation of the cardiolipin/cytochrome c interaction.
(§1) Interaction of SS peptides with horse heart cytochrome c in the absence or presence of free cardiolipin or cardiolipin/POPC (1:1) liposomes (prepared as described in Example 22) was examined by fluorescence quenching of [atn]SS-02 (λex/λem=320/420 nm) and [ald]SS-02 (λex/λem=360/510 nm) upon addition of cytochrome c (using a Hitachi F-4500 fluorescence spectrophotometer). The solvents used to dissolve cardiolipin and POPC had negligible effect on cytochrome c-dependent quenching of these peptides. All experiments were done in low ionic solution (deionized water) or 20 mM Hepes pH 7.4.

cytochrome c = cytochrome c (Equus caballus, UniProt P00004); test: Fluorescence quenching of labelled peptides by cytochrome c; assay type: binding, horse; set-up: from tissue; host or cells: horse heart; conditions: for change in λmax on quenching by cytochrome c / quenching of fluorescence by cytochrome c: Example 22; for quenching of fluorescence by cytochrome c: additions of cytochrome c (2 μM)
cytochrome c, sequence (P00004 2-105 limits assumed): as above
Experimental: Maximal fluorescence emission of SS-19 was monitored at 420 nm following excitation at 320 nm using Hitachi F-4500 fluorescence spectrophotometer.
The quenching by cytochrome c was not displaced by sequential additions of bovine serum albumin (FIG. 12C, A+arrows) (500 μg/ml). […] Accordingly, aromatic-cationic peptides of the present disclosure are useful for the prevention or treatment of diseases or disorders characterized by dysregulation of cytochrome c.
Fluorescence emission of SS-19 (10 μM) was monitored in real time (Ex/Em=320 nm/420 nm) using Hitachi F-4500 fluorescence spectrophotometer.
as §1

[3] = test system: cytochrome c-depleted mitoplasts; test: Respiration in cytochrome c-depleted mitoplasts; assay type: biochemical, rat
Experimental: Rates of respiration were measured in the presence of 500 μM Succinate with or without 100 μM SS-31. The experiment was carried out in triplicate, with n=3. […] Accordingly, aromatic-cationic peptides of the present disclosure are useful for the prevention or treatment of diseases or disorders characterized by dysregulation of cytochrome c.
A model of cytochrome c tightly bound to mitochondrial cardiolipin was used to investigate interaction of SS-31 with cytochrome c-CL complex in mitochondria. After removal of outer membrane with digitonin, mitoplasts were washed with 120 mM KCl to remove all free and electrostatically associated cytochrome c, leaving only cytochrome c tightly bound to CL.

**Q.** With 2′,6′-Dmt-D-Arg-Ald-Lys-NH2 [SS-36] as the substance, how does the “increase in quantal yield on addition of CL” value ([1]; 1 μM peptide, 5 μg/ml CL, excitation 350 nm) read?
**A.** more than 100 fold

**Q.** What about the “affinity compared among POPS, POPA, DPPG and cardiolipin” value ([1]; 1 μM peptide, 10 μg/mL phospholipid) of the same substance?
**A.** Cardiolipin shows the highest affinity

**Q.** What about the “peptide fluorescence on addition of CL” value ([1]; CL 2.5 μg/ml) of the same substance?
**A.** increase in SS-36 fluorescence

**Q.** What about the “emission maximum with cardiolipin after addition of cytochrome c” value [2] of the same substance?
**A.** 450 nm

**Q.** What about the “emission maximum with cardiolipin before addition of cytochrome c” value [2] of the same substance?
**A.** 510 nm

**Q.** What about the “quenching of fluorescence by cytochrome c in the presence of CL” value ([2]; CL 2.5 μg/ml, cytochrome c 2 μM) of the same substance?
**A.** dramatic quenching

**Q.** And the “change in λmax on quenching by cytochrome c” value (cytochrome c)?
**A.** no change in λmax

**Q.** What about the “quenching of fluorescence by cytochrome c” value (cytochrome c) of the same substance?
**A.** concentration-dependent quenching

**Q.** For “2′,6′-Dmt-D-Arg-Phe-(atn)Dap-NH2 [SS-19]”, which “shift in λmax on addition of CL” value ([1]; 1 μM peptide, CL 5-50 μg/ml, excitation 320 nm) is on record?
**A.** no significant shift in λmax

**Q.** What about the “increase in quantal yield on addition of CL” value ([1]; 1 μM peptide, CL 5 to 50 μg/ml) of the same substance?
**A.** 2 fold

**Q.** And the “emission intensity on addition of cardiolipin” value ([1]; 1 μM peptide, deionized water (Example 21))?
**A.** increased the emission intensity of [atn]SS-02 in a concentration-dependent manner

**Q.** What about the “peptide fluorescence on addition of CL” value ([1]; 10 μM peptide, CL 50 μg/ml, Ex/Em 320/420 nm) of the same substance?
**A.** increase in SS-19 fluorescence

**Q.** And the “quenching of the fluorescent signal” value ([2]; 2 μM cytochrome c, 1 μM peptide, 10 μg/mL cardiolipin, 420 nm)?
**A.** ~50%

**Q.** And the “extent of quenching by cytochrome c with CL compared to without CL” value ([2]; 10 μM peptide, CL 50 μg/ml, cytochrome c 2 μM)?
**A.** larger extent of quenching

**Q.** And the “effect of cardiolipin on interaction between cytochrome c and peptide” value ([2]; free cardiolipin or cardiolipin liposomes)?
**A.** potentiated by either free cardiolipin or cardiolipin liposomes in a dose-dependent manner

**Q.** And the “dependence of interaction on amount of cytochrome c” value (cytochrome c)?
**A.** linearly dependent on the amount of cytochrome c added

**Q.** And the “quenching of the fluorescent signal” value (cytochrome c; 2 μM cytochrome c, 1 μM peptide, absence of cardiolipin, 420 nm)?
**A.** ~20%

**Q.** And the “quenching of peptide fluorescence by cytochrome c” value (cytochrome c; 10 μM peptide, 2 μM cytochrome c, Ex/Em 320/420 nm)?
**A.** similarly quenched by sequential addition of 2 μM cytochrome c; also recorded: immediate quenching of the fluorescence signal

**Q.** And the “displacement of cytochrome c quenching by bovine serum albumin” value (cytochrome c; BSA 500 μg/ml)?
**A.** not displaced

**Q.** And the “change in λmax on quenching by cytochrome c” value (cytochrome c)?
**A.** no change in λmax

**Q.** What about the “quenching of fluorescence by cytochrome c” value (cytochrome c) of the same substance?
**A.** concentration-dependent quenching

**Q.** For D-Arg-2′,6′-Dmt-Lys-Phe-NH2 [SS-31], which “respiration (O2 consumption) in cytochrome c-depleted mitoplasts” value ([3]; 500 μM succinate, 100 μM SS-31) is on record?
**A.** Enhances Respiration in Cytochrome c-Depleted Mitoplasts

**Q.** And the “complex II respiration in mitoplasts with tightly bound cytochrome c” value ([3]; mitoplasts washed with 120 mM KCl)?
**A.** enhances complex II respiration in mitoplasts with cytochrome c tightly bound to inner mitochondrial membrane in a dose-dependent manner
